In patent US10287269B2, “Pyrazolyl pyrimidinone compounds as PDE2 inhibitors” (Merck Sharp & Dohme Corp., priority 2015, dated 2019):
Like-named read-outs stand apart in the source and are kept apart here.

Biological target: T1, Rhesus PDE2A3 (Macaca mulatta, UniProt B3VTJ2)
T1 construct: made in house; host or cells: AD293 cells, transient transfection, pcDNA3.3-TOPO; lysate supernatant used as enzyme
T1 sequence (B3VTJ2 1-941): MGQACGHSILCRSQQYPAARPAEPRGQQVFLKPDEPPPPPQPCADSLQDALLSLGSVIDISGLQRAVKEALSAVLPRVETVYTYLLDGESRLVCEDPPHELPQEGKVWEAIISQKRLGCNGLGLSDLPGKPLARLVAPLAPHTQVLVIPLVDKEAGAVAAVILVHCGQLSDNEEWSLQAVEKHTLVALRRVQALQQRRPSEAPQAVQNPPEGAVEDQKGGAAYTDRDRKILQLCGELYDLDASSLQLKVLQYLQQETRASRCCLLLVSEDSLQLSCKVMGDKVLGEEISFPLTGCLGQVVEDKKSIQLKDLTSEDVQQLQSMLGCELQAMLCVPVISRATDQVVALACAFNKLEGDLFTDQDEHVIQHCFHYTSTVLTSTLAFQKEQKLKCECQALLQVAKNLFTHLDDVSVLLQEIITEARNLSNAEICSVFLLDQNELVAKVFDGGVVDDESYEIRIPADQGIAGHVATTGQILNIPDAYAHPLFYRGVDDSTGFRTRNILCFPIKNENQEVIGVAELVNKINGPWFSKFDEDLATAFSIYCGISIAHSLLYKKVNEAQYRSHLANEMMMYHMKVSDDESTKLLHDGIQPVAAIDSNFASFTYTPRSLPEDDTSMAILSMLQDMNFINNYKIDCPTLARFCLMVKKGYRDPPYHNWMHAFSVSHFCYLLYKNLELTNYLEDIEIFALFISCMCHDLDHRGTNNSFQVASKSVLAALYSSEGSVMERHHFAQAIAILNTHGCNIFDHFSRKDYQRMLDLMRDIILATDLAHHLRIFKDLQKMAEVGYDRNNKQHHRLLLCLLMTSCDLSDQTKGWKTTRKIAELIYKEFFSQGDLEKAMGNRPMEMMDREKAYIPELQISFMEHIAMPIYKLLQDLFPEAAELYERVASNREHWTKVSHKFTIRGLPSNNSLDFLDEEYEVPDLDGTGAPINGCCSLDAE
Assay: PDE2 fluorescence polarization (IMAP FP) inhibition assay, rhesus enzyme
Format: biochemical, rhesus macaque
Description: The activity of the compounds in accordance with the present invention as PDE2 inhibitors may be readily determined using a fluorescence polarization (FP) methodology (Huang, W., et al., J. Biomol Screen, 2002, 7: 215).
In a typical experiment the PDE2 inhibitory activity of the compounds of the present invention was determined in accordance with the following experimental method. Rhesus PDE2A3 was amplified from rhesus macaque brain cDNA (Biochain Institute, Hayward, Calif.) using primers based on human PDE2A sequence (accession NM_002599.3) where the forward primer containing a Kozak consensus was 5′-[…]-3′ and the reverse primer was 5′-[…]-3′. Amplification with Easy-A High-Fidelity PCR cloning enzyme (Stratagene, La Jolla, Calif.) was 95° C. for 2 minutes followed by thirty three cycles of 95° C. for 40 seconds, 52° C. for 30 seconds, and 72° C. for 2 minutes 48 seconds. Final extension was 72° C. for 7 minutes. The PCR product was TA cloned into pcDNA3.3-TOPO (Invitrogen, Carlsbad, Calif.) according to standard protocol. A consensus sequence was developed from multiple clones and then deposited into GenBank (EU812167). AD293 cells (Stratagene, La Jolla, Calif.) with 70-80% confluency were transiently transfected with rhesus PDE2A3/pcDNA3.3-TOPO using Lipofectamine 2000 according to manufacturer specifications (Invitrogen, Carlsbad, Calif.). Cells were harvested 48 hours post-transfection and lysed by sonication (setting 3, 10×5 sec pulses) in a buffer containing 20 mM HEPES pH 7.4, 1 mM EDTA and Complete Protease Inhibitor Cocktail Tablets (Roche, Indianapolis, Ind.). Lysate was collected by centrifugation at 75,000×g for 20 minutes at 4° C. and supernatant utilized for evaluation of PDE2 activity. The fluorescence polarization assay for cyclic nucleotide phosphodiesterases was performed using an IMAP® FP kit supplied by Molecular Devices, Sunnyvale, Calif. (product # R8139). […] Assays were performed at room temperature in 384-well microtiter plates with an incubation volume of 20.2 μL. Solutions of test compounds were prepared in DMSO and serially diluted with DMSO to yield 8 μL of each of 10 solutions differing by 3-fold in concentration, at 32 serial dilutions per plate. […] 0% of inhibition is determined by using DMSO (1% final concentrations).
A Labcyte Echo 555 (Labcyte, Sunnyvale, Calif.) is used to dispense 200 nL from each well of the titration plate to the 384 well assay plate. Ten microliters of a solution of enzyme (1/2000 final dilution from aliquots; sufficient to produce 20% substrate conversion) was added to the assay plate. Next 10 uL of a separate solution of the substrate FAM-labeled cAMP (50 nM final concentration product # R7506 from Molecular Devices) and the activator cGMP (1 uM final concentration), prepared in the assay buffer (10 mM Tris HCl, pH 7.2, 10 mM MgCl2, 0.05% NaN3 0.01% Tween-20, and 1 mM DTT) was added to the assay plate and shaken to mix. The reaction is allowed to proceed at room temperature for 60 minutes. A binding solution is then made from the kit components, comprised of 80% Solution A, 20% Solution B and binding reagent at a volume of 1/600 the total binding solution. The enzymatic reaction is stopped by addition of 60 μl, of the binding solution to each well of the assay plates and the plates are sealed and shaken for 30 seconds. The plate was incubated at room temperature for at least one hour prior to determining the fluorescence polarization (FP). The parallel and perpendicular fluorescence of each well of the plate was measured using a Tecan Genios Pro plate reader (Tecan, Switzerland) or Perkin Elmer EnVision™ plate reader (Waltham, Mass.). Fluorescence polarization (mP) was calculated from the parallel (S) and perpendicular (P) fluorescence of each sample well and the analogous values for the median control well, containing only substrate (So and Po), using the following equation: Polarization (mP)=1000*(S/So−P/Po)/(S/So+P/Po).

[1] = Lab B, read-out: Rhesus PDE2 Ki (nM) Lab B
[2] = Lab A, read-out: Rhesus PDE2 Ki (nM) Lab A

SMILES: Cc1nc(-c2ccnn2C(C)c2ccc(OC(F)(F)F)cc2)cc(=O)[nH]1 (centres unmarked) [Example 76, 2-methyl-6-(1-(1-(4-(trifluoromethoxy)phenyl)ethyl)-1H-pyrazol-5-yl)pyrimidin-4(3H)-one]
- Ki [1]: 15900 nM

SMILES: CCc1nc(-c2cnn(C(C)c3ccc(C(F)(F)F)cc3F)c2)cc(=O)[nH]1 (single isomer, unassigned) [Example 86, (S)- or (R)-2-ethyl-6-(1-(1-(2-fluoro-4-(trifluoromethyl)phenyl)ethyl)-1H-pyrazol-4-yl)pyrimidin-4(3H)-one]
- Ki [2]: 146 nM

SMILES: Cc1nc(-n2cc(C(C)c3ccc(C4CCC4)cc3)cn2)cc(=O)[nH]1 (centres unmarked) [Example 38, 6-(4-(1-(4-cyclobutylphenyl)ethyl)-1H-pyrazol-1-yl)-2-methylpyrimidin-4(3H)-one]
- Ki [1]: 303 nM

SMILES: Cc1nc(-c2c(C)nn(C(C)c3ccc(C(F)(F)F)cc3)c2C)cc(=O)[nH]1 (centres unmarked) [Example 79, 6-(3,5-dimethyl-1-(1-(4-(trifluoromethyl)phenyl)ethyl)-1H-pyrazol-4-yl)-2-methylpyrimidin-4(3H)-one]
- Ki [1]: 727 nM

SMILES: Cc1nc(-c2cnn(C(C)c3ccc(OC(F)(F)F)cc3)c2)cc(=O)[nH]1 (single isomer, unassigned) [Example 128, (S)- or (R)-2-methyl-6-(1-(1-(4-(trifluoromethoxy)phenyl)ethyl)-1H-pyrazol-4-yl)pyrimidin-4(3H)-one]
- Ki [1]: 588 nM

SMILES: Cc1nc(-c2cnn(C(C)c3ccc(OC(F)(F)F)cc3F)c2)cc(=O)[nH]1 (single isomer, unassigned) [Example 59, (S)- or (R)-6-(1-(1-(2-fluoro-4-(trifluoromethoxy)phenyl)ethyl)-1H-pyrazol-4-yl)-2-methylpyrimidin-4(3H)-one]
- Ki [1]: 469 nM

SMILES: CNC(c1ccc(C(F)(F)F)cc1)c1cnn(-c2cc(=O)[nH]c(C)n2)c1 (centres unmarked) [Example 31, 2-Methyl-6-(4-((methylamino)(4-(trifluoromethyl)phenyl)methyl)-1H-pyrazol-1-yl)pyrimidin-4(3H)-one]
- Ki [1]: 488 nM

SMILES: Cc1nc(-c2cc(C(C)c3ccc(C(F)(F)F)cc3)nn2C)cc(=O)[nH]1 (single isomer, unassigned) [Example 131, (R)- or (S)-2-methyl-6-(1-methyl-3-(1-(4-(trifluoromethyl)phenyl)ethyl)-1H-pyrazol-5-yl)pyrimidin-4(3H)-one]
- Ki [1]: > 1000 nM

SMILES: Cc1nc(-c2cnn(C(C)c3ccc(F)cc3)c2)cc(=O)[nH]1 (centres unmarked) [Example 152, 6-(1-(1-(4-fluorophenyl)ethyl)-1H-pyrazol-4-yl)-2-methylpyrimidin-4(3H)-one]
- Ki [1]: 4130 nM

SMILES: Cc1nc(-c2cc(C(C)c3ccc(C(F)(F)F)cc3)nn2C)cc(=O)[nH]1 (single isomer, unassigned) [Example 132, (S)- or (R)-2-methyl-6-(1-methyl-3-(1-(4-(trifluoromethyl)phenyl)ethyl)-1H-pyrazol-5-yl)pyrimidin-4(3H)-one]
- Ki [1]: > 1000 nM

SMILES: COc1cc(C(F)(F)F)ccc1[C@@H](C)n1cc(-c2cc(=O)[nH]c(C)n2)cn1 (single isomer, unassigned) [Example 1]
- Ki [1]: 301 nM

SMILES: Cc1nc(-c2cnn(C(C)c3ccc(CC(F)(F)F)cc3F)c2)cc(=O)[nH]1 (single isomer, unassigned) [Example 96, (S)- or (R)-6-(1-(1-(2-fluoro-4-(2,2,2-trifluoroethyl)phenyl)ethyl)-1H-pyrazol-4-yl)-2-methylpyrimidin-4(3H)-one]
- Ki [2]: 1260 nM

SMILES: Cc1nc(-c2cnn(C(C)C3CCOCC3)c2)cc(=O)[nH]1 (centres unmarked) [Example 68, 2-methyl-6-(1-(1-(tetrahydro-2H-pyran-4-yl)ethyl)-1H-pyrazol-4-yl)pyrimidin-4(3H)-one]
- Ki [2]: 30100 nM
- Ki [1]: 40100 nM

SMILES: Cc1nc(-c2cnn(C(C)c3ccc(C4CC4)cc3F)c2)cc(=O)[nH]1 (single isomer, unassigned) [Example 92, (S)- or (R)-6-(1-(1-(4-cyclopropyl-2-fluorophenyl)ethyl)-1H-pyrazol-4-yl)-2-methylpyrimidin-4(3H)-one]
- Ki [2]: 212 nM

SMILES: COC(=O)c1ccc(C(C)n2ccc(-c3cc(=O)[nH]c(C)n3)n2)cc1 (centres unmarked) [Example 162, methyl 4-(1-(3-(2-methyl-6-oxo-1,6-dihydropyrimidin-4-yl)-1H-pyrazol-1-yl)ethyl)benzoate]
- Ki [1]: 29800 nM

SMILES: Cc1nc(-c2cnn(C(C)c3ccc(CC(F)(F)F)cc3F)c2)cc(=O)[nH]1 (single isomer, unassigned) [Example 95, (R)- or (S)-6-(1-(1-(2-fluoro-4-(2,2,2-trifluoroethyl)phenyl)ethyl)-1H-pyrazol-4-yl)-2-methylpyrimidin-4(3H)-one]
- Ki [2]: 1140 nM

SMILES: Cc1nc(-n2cc(CN3CCC(C(F)(F)F)CC3)cn2)cc(=O)[nH]1 [Example 32, 2-Methyl-6-(4-((4-(trifluoromethyl)piperidin-1-yl)methyl)-1H-pyrazol-1-yl)pyrimidin-4(3H)-one]
- Ki [2]: 19300 nM
- Ki [1]: 49300 nM

SMILES: CCc1ccc(C(C)n2cc(-c3cc(=O)[nH]c(C)n3)cn2)c(F)c1 (single isomer, unassigned) [Example 102, (S)- or (R)-6-(1-(1-(4-ethyl-2-fluorophenyl)ethyl)-1H-pyrazol-4-yl)-2-methylpyrimidin-4(3H)-one]
- Ki [2]: 212 nM

SMILES: Cc1nc(-n2cc(C(C)c3ccc(C(F)(F)F)c(F)c3)cn2)cc(=O)[nH]1 (single isomer, unassigned) [Example 51, (S)- or (R)-6-(4-(1-(3-fluoro-4-(trifluoromethyl)phenyl)ethyl)-1H-pyrazol-1-yl)-2-methylpyrimidin-4(3H)-one]
- Ki [1]: > 1000 nM

SMILES: CCCC(c1ccc(C(F)(F)F)cc1)n1ccc(-c2cc(=O)[nH]c(C)n2)n1 (centres unmarked) [Example 160, 2-methyl-6-(1-(1-(4-(trifluoromethyl)phenyl)butyl)-1H-pyrazol-3-yl)pyrimidin-4(3H)-one]
- Ki [1]: 2300 nM

SMILES: Cc1ccc(C(C)n2cc(-c3cc(=O)[nH]c(C)n3)cn2)c(F)c1 (single isomer, unassigned) [Example 151, (S)- or (R)-6-(1-(1-(2-fluoro-4-methylphenyl)ethyl)-1H-pyrazol-4-yl)-2-methylpyrimidin-4(3H)-one]
- Ki [2]: 218 nM
